In patent US20100173930A1, “Certain Chemical Entities, Compositions and Methods” (priority 2006, published 2010):

The molecules below were run on SKM MYOFIBRIL (assay: SKM myofibril AC1.4 (ATPase, PK/LDH coupled enzyme system)). Conditions: screen at pCa=6.5.
Assay type: biochemical
Experimental: Assay components including the target protein complex, coupling enzymes and substrates, and ATP can then be added to the wells and the absorbance or fluorescence of each well of the plate can be measured with a plate reader.
In some embodiments, the method uses a 384 well plate format and a 25µL reaction volume. […] As will be appreciated by those in the art, the assay components are added in buffers and reagents. The incubation periods can be optimized to give adequate detection signals over the background. The assay can be done in real time giving the kinetics of ATP hydrolysis which increases the signal to noise ratio of the assay.
Just prior to screening, the actin, tropomyosin and troponin complex are mixed together in the desired ratio (e.g., 7:1:1) to achieve maximal calcium regulation of the actin filament. The screen is conducted at a pCa=6.5. This calcium concentration is in the physiological range during muscle contraction.
To measure the generation of ADP during the reaction, a pyruvate kinase/lactate dehydrogenase/NADH coupled enzyme system (PK/LDH) is added to the actin. The myosin is kept separately. The plates are read in real time so that kinetic curves are obtained. These compounds are in DMSO and were already spotted onto the bottoms of 384 well plates at 10 to 40 μg/ml final concentration.
Further: unit not given here.

Compared with C[C@@H](Nc1c(-c2ccc(O)cc2)nc2ccccn12)C(C)(C)C [4-{3-[((1R)-1,2,2-trimethylpropyl)amino]-4-hydroimidazo[1,2-a]pyridin-2-yl}phenol], C[C@H](Nc1c(-c2ccc(O)cc2)nc2ccccn12)C(C)(C)C [4-{3-[((1S)-1,2,2-trimethylpropyl)amino]-4-hydroimidazo[1,2-a]pyridin-2-yl}phenol] is lower in “SKM MYOFIBRIL AC1.4 (median)” value: 15.0489 for the first, 11.8489 for the second.

Going from C[C@@H](Nc1c(-c2ccc(O)cc2)nc2ccccn12)c1ccccc1 [4-{3-[((1R)-1-phenylethyl)amino]-4-hydroimidazo[1,2-a]pyridin-2-yl}phenol] to C[C@H](Nc1c(-c2ccc(O)cc2)nc2ccccn12)c1ccccc1 [4-{3-[((1S)-1-phenylethyl)amino]-4-hydroimidazo[1,2-a]pyridin-2-yl}phenol], the “SKM MYOFIBRIL AC1.4 (median)” value falls from 28.0451 to 23.0212.

Compared with Oc1ccc(-c2nc3ccccn3c2NCc2ccccc2)cc1 [4-{3-[benzylamino]-4-hydroimidazo[1,2-a]pyridin-2-yl}phenol], Cc1ccc(-c2nc3ccccn3c2NCc2cccc(Cl)c2)cc1 [[(3-chlorophenyl)methyl][2-(4-methylphenyl)(4-hydroimidazo[1,2-a]pyridin-3-yl)]amine] is lower in “SKM MYOFIBRIL AC1.4 (median)” value: 27.3665 for the first, 17.6147 for the second.

Going from COc1ccc(-c2nc3ccc(C)cn3c2NC2CCCCC2)cc1O [5-[3-(cyclohexylamino)-6-methyl(4-hydroimidazo[1,2-a]pyridin-2-yl)]-2-methoxyphenol] to Cc1ccc(-c2nc3ccccn3c2NC2CCCCC2)cc1 [cyclohexyl[2-(4-methylphenyl)(4-hydroimidazo[1,2-a]pyridin-3-yl)]amine], the “SKM MYOFIBRIL AC1.4 (median)” value rises from 6.0251 to 25.2334.

First: Cc1ccn2c(NCc3cccc(Cl)c3)c(-c3ccc(Cl)cc3O)nc2c1 [5-chloro-2-(3-{[(3-chlorophenyl)methyl]amino}-7-methyl(4-hydroimidazo[1,2-a]pyridin-2-yl))phenol]
Second: COC(=O)c1ccn2c(NCc3cccc(Cl)c3)c(-c3ccccc3O)nc2c1 [methyl 3-{[(3-chlorophenyl)methyl]amino}-2-(2-hydroxyphenyl)-4-hydroimidazo[1,2-a]pyridine-7-carboxylate]
The “SKM MYOFIBRIL AC1.4 (median)” value of the first is higher: 20.0045 for the first, 5.1088 for the second.

Compared with CN(C)C(=O)c1ccc2nc(-c3ccccc3O)c(NCc3cccc(Cl)c3)n2c1 [(3-{[(3-chlorophenyl)methyl]amino}-2-(2-hydroxyphenyl)(4-hydroimidazo[1,2-a]pyridin-6-yl))-N,N-dimethylcarboxamide], CN(C)CCNC(=O)c1ccc2nc(-c3ccccc3O)c(NCc3cccc(Cl)c3)n2c1 [N-[2-(dimethylamino)ethyl](3-{[(3-chlorophenyl)methyl]amino}-2-(2-hydroxyphenyl)(4-hydroimidazo[1,2-a]pyridin-6-yl))carboxamide] is lower in “SKM MYOFIBRIL AC1.4 (median)” value: 16.9244 for the first, 2.2231 for the second.

Going from O=C(NCCO)c1ccc2nc(-c3ccccc3O)c(NCc3cccc(Cl)c3)n2c1 [(3-{[(3-chlorophenyl)methyl]amino}-2-(2-hydroxyphenyl)(4-hydroimidazo[1,2-a]pyridin-6-yl))-N-(2-hydroxyethyl)carboxamide] to COCCNC(=O)c1ccc2nc(-c3ccccc3O)c(NCc3cccc(Cl)c3)n2c1 [(3-{[(3-chlorophenyl)methyl]amino}-2-(2-hydroxyphenyl)(4-hydroimidazo[1,2-a]pyridin-6-yl))-N-(2-methoxyethyl)carboxamide], the “SKM MYOFIBRIL AC1.4 (median)” value rises from 1.3334 to 2.0573.

First: CNC(=O)c1ccc2nc(-c3ccccc3O)c(NCc3cccc(Cl)c3)n2c1 [(3-{[(3-chlorophenyl)methyl]amino}-2-(2-hydroxyphenyl)(4-hydroimidazo[1,2-a]pyridin-6-yl))-N-methylcarboxamide]
Second: COC(=O)c1ccc2nc(-c3ccccc3O)c(NCc3cccc(Cl)c3)n2c1 [methyl 3-{[(3-chlorophenyl)methyl]amino}-2-(2-hydroxyphenyl)-4-hydroimidazo[1,2-a]pyridine-6-carboxylate]
The “SKM MYOFIBRIL AC1.4 (median)” value of the first is lower: 1.2348 for the first, 2.0174 for the second.

Compared with O=C(NCCO)c1ccc2nc(-c3ccccc3O)c(NCc3ccc(F)cc3)n2c1 [(3-{[(4-fluorophenyl)methyl]amino}-2-(2-hydroxyphenyl)(4-hydroimidazo[1,2-a]pyridin-6-yl))-N-(2-hydroxyethyl)carboxamide], COCCNC(=O)c1ccc2nc(-c3ccccc3O)c(NCc3ccc(F)cc3)n2c1 [(3-{[(4-fluorophenyl)methyl]amino}-2-(2-hydroxyphenyl)(4-hydroimidazo[1,2-a]pyridin-6-yl))-N-(2-methoxyethyl)carboxamide] is higher in “SKM MYOFIBRIL AC1.4 (median)” value: 2.2384 for the first, 4.3059 for the second.

First: CNC(=O)c1ccc2nc(-c3ccccc3O)c(NCc3ccc(F)cc3)n2c1 [(3-{[(4-fluorophenyl)methyl]amino}-2-(2-hydroxyphenyl)(4-hydroimidazo[1,2-a]pyridin-6-yl))-N-methylcarboxamide]
Second: COC(=O)c1ccc2nc(-c3ccccc3O)c(NCc3ccc(F)cc3)n2c1 [methyl 3-{[(4-fluorophenyl)methyl]amino}-2-(2-hydroxyphenyl)-4-hydroimidazo[1,2-a]pyridine-6-carboxylate]
The “SKM MYOFIBRIL AC1.4 (median)” value of the first is lower: 1.8401 for the first, 4.201 for the second.

Going from CN(C)CCNC(=O)c1ccc2nc(-c3ccccc3O)c(NCc3ccc(F)cc3)n2c1 [N-[2-(dimethylamino)ethyl](3-{[(4-fluorophenyl)methyl]amino}-2-(2-hydroxyphenyl)(4-hydroimidazo[1,2-a]pyridin-6-yl))carboxamide] to Fc1cccc(-c2nc3ccccn3c2NCc2cccc(Cl)c2)c1 [[(3-chlorophenyl)methyl][2-(3-fluorophenyl)(4-hydroimidazo[1,2-a]pyridin-3-yl)]amine], the “SKM MYOFIBRIL AC1.4 (median)” value rises from 4.4632 to 43.8606.

First: COc1cccc(-c2nc3ccccn3c2NCc2cccc(Cl)c2)c1 [[(3-chlorophenyl)methyl][2-(3-methoxyphenyl)(4-hydroimidazo[1,2-a]pyridin-3-yl)]amine]
Second: COc1ccc(-c2nc3ccccn3c2NC2CCCCC2)cc1 [cyclohexyl[2-(4-methoxyphenyl)(4-hydroimidazo[1,2-a]pyridin-3-yl)]amine]
The “SKM MYOFIBRIL AC1.4 (median)” value of the first is higher: 35.6445 for the first, 16.6703 for the second.

Compared with c1csc(-c2nc3ccccn3c2NC2CCCCC2)c1 [cyclohexyl(2-(2-thienyl)(4-hydroimidazo[1,2-a]pyridin-3-yl))amine], Fc1ccc(-c2nc3ccccn3c2NC2CCCCC2)cc1 [cyclohexyl[2-(4-fluorophenyl)(4-hydroimidazo[1,2-a]pyridin-3-yl)]amine] is lower in “SKM MYOFIBRIL AC1.4 (median)” value: 16.7359 for the first, 9.155 for the second.

Going from Cc1ccn2c(NC3CCCCC3)c(-c3ccoc3)nc2c1 [cyclohexyl(2-(3-furyl)-7-methyl(4-hydroimidazo[1,2-a]pyridin-3-yl))amine] to Cc1ccc(-c2nc3cc(C)ccn3c2NC2CCCC2)cc1 [cyclopentyl[7-methyl-2-(4-methylphenyl)(4-hydroimidazo[1,2-a]pyridin-3-yl)]amine], the “SKM MYOFIBRIL AC1.4 (median)” value falls from 30.5823 to 4.2349.
